Assay results as given in PubChem BioAssay (NCI).
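Interpolation was linear, between the two tested concentrations surrounding the appropriate level; five concentrations were tested over 48 hours in 96-well plates. TGI: total growth inhibition.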

How the values were obtained:
Experiment in all cases: NCI anticancer screen, dose series, 48 h
[1] = system: K-562 leukemia
[2] = system: HOP-62 NSCLC
[3] = system: SF-295 CNS
[4] = system: COLO 205 colon
[5] = system: SK-MEL-2 melanoma
[6] = system: OVCAR-4 ovarian
[7] = system: OVCAR-8 ovarian
[8] = system: RXF 393 renal
[9] = system: PC-3 prostate
[10] = system: HCT-116 colon
[11] = system: MDA-N
[12] = system: UACC-62 melanoma
[13] = system: A498 renal
[14] = system: HT29 colon
[15] = system: ACHN renal
[16] = system: MDA-MB-231 breast
[17] = system: SK-MEL-5 melanoma

| SMILES | TGI [1] [µM] | TGI [2] [µM] | TGI [3] [µM] | TGI [4] [µM] | TGI [5] [µM] | TGI [6] [µM] | TGI [7] [µM] | TGI [8] [µM] | TGI [9] [µM] | TGI [10] [µM] | TGI [11] [µM] | TGI [12] [µM] | TGI [13] [µM] | TGI [14] [µM] | TGI [15] [µM] | TGI [16] [µM] | TGI [17] [µM] |
| --- | --- | --- | --- | --- | --- | --- | --- | --- | --- | --- | --- | --- | --- | --- | --- | --- | --- |
| COc1ccc(C(=O)N(C(=S)OCCOc2ccccc2)c2ccccc2)cc1 | > 100 | > 100 | > 100 | > 100 | 68.5 | > 100 | > 100 | 98.5 | > 100 | > 100 | > 100 | > 100 | 73.9 | > 100 | > 100 | > 100 |  |
| COC(=O)CC(=O)Nc1sccc1S(=O)(=O)c1ccccc1 | > 100 |  | > 100 | > 100 | > 100 | > 100 | > 100 | > 100 | > 100 | > 100 | > 100 | > 100 | > 100 | > 100 | > 100 | > 100 | > 100 |
| O=C1NC(=O)C(COCc2ccccc2)C2=C1SCCC2 (stereo unspecified) | > 100 | > 100 | > 100 | > 100 | > 100 | > 100 | > 100 | > 100 | > 100 | > 100 | > 100 |  | > 100 | > 100 | > 100 | > 100 | > 100 |
| CC1=N[C@](C)(C2CC3C=CC2C3=O)COC1=O (stereo partly specified) | > 100 | > 100 | > 100 | > 100 |  | > 100 | > 100 | > 100 | > 100 | > 100 | > 100 | > 100 | > 100 | > 100 | > 100 | > 100 | > 100 |
| Cc1cc2nc(-c3c(F)cccc3F)n(Cc3c(F)cccc3F)c2cc1C | 42.8 | 28.7 | 27.9 | 30.7 | 29.6 | 40.1 | 29.5 | 61 | 40.6 | 24.4 | 38.4 |  | 39.9 | 34 | 35.4 | 31 | 26.5 |
| O=c1[nH]c(-c2ccccc2)nc2c1sc1nc3ccccc3n12 | > 100 |  | > 100 | > 100 | > 100 | > 100 | > 100 | > 100 | > 100 | > 100 | > 100 | > 100 | > 100 | > 100 | > 100 | > 100 | > 100 |
| O=C1/C(=C/c2c(Cl)[nH]c3ccccc23)c2ccccc2N1c1ccccc1 | > 100 | 26.1 | 8.54 | 5.34 | 9.57 |  | 20.4 | 31.1 | 19.4 | 15.6 | 3.8 | 21.1 | 40.8 | 18.9 | 57.2 | 29.6 |  |
| CC(C)(CO)NC(=O)Nc1c(C(F)(F)F)cc(-c2ccccc2)[nH]c1=O | > 100 | > 100 | > 100 | > 100 | > 100 |  | > 100 | > 100 | > 100 | > 100 | > 100 | > 100 | > 100 | > 100 | > 100 | > 100 | > 100 |
| c1ccc(C2OCC(OC3CCCCO3)CO2)cc1 (stereo unspecified) | > 100 | > 100 | > 100 | > 100 | > 100 | > 100 | > 100 |  | > 100 | > 100 | > 100 | > 100 | > 100 | > 100 | > 100 | > 100 | > 100 |
| COc1cccc2c1C(=O)c1ccc3cc(CCl)cc(O)c3c1C2=O | 2.49 | 1.08 | 2.23 | 0.467 | 1.1 |  | 0.612 | 0.756 | 0.973 | 0.29 | 0.765 | 0.687 | 1.7 | 0.578 | 0.84 | 0.35 | 1.19 |
| CN(CCCN(C)CCc1ccc(Cl)c(Cl)c1)CCCN1CCCC1 | 1.3 | 10.5 | 4.76 | 6.84 | 3.48 | 20.5 | 10.9 | 4.58 | 15.1 | 4.11 | 2.65 | 3.49 | 3.37 | 2.58 | 19.2 | 3.61 |  |
| COC(=O)C1CCC(=O)N1C(c1ccccc1)c1cc(OC)c(OC)c(OC)c1 (stereo unspecified) | 49.9 | > 100 | > 100 | > 100 |  | > 100 | > 100 | > 100 | > 100 | > 100 | 58.8 | > 100 | > 100 | > 100 | > 100 | > 100 |  |
| COC(C)(C)CCc1[nH]c2ccccc2c1CC(=O)NCCc1cncn1C | > 100 |  |  | > 100 | > 100 | > 100 | > 100 | > 100 | > 100 | > 100 | > 100 | > 100 | > 100 | > 100 | > 100 | > 100 | > 100 |
| COc1ccc(C2(O)c3ccccc3C(=O)N(C)C2(O)c2ccc(OC)cc2)cc1 (stereo unspecified) | > 100 | > 100 | > 100 | 60.1 | > 100 | > 100 | > 100 | > 100 | > 100 | > 100 | 38.1 | > 100 | > 100 | > 100 |  | > 100 | > 100 |
